Laboratory results: the NIST ThermoML archive (doi:10.1016/j.jct.2013.05.011)
± gives the expanded uncertainty stated by the source.

Tests used:
[1] = activity coefficient (dimensionless); of the first substance listed, at infinite dilution; xn = mol fraction of the nth substance listed; conditions: 101 kPa, Liquid, Chromatography, x1 = 0
[2] = 288.15 K; 101.33 kPa; Liquid; Vibrating tube method
[3] = refractive index (Na D-line) (dimensionless); conditions: 293.15 K; 101.33 kPa; Liquid; Standard Abbe refractometry

| SMILES | activity coefficient ([1]; 333.2 K) | activity coefficient ([1]; 348.2 K) | activity coefficient ([1]; 363.2 K) | mass density [2] | refractive index [3] |
| --- | --- | --- | --- | --- | --- |
| Cc1ccccc1 [toluene] + OCCOCCO | 11.2 ± 0.77 | 10.9 ± 0.75 | 10.5 ± 0.72 | – | – |
| C1CCCC1 [cyclopentane] + OCCOCCOCCO | 15.2 ± 1 | 14 ± 0.95 | 12.7 ± 0.87 | – | – |
| CCO [ethanol] + OCCOCCOCCO | 1.18 ± 0.08 | 1.15 ± 0.07 | 1.12 ± 0.07 | – | – |
| CCCO [propan-1-ol] + OCCOCCOCCO | 1.38 ± 0.09 | 1.34 ± 0.09 | 1.31 ± 0.09 | – | – |
| C1CCCCC1 [cyclohexane] + OCCOCCO | 42.7 ± 2.9 | 39.2 ± 2.7 | 34.9 ± 2.4 | – | – |
| c1ccccc1 [benzene] + OCCOCCO | 7.33 ± 0.5 | 7.21 ± 0.49 | 7.05 ± 0.48 | – | – |
| CCCCCCC [heptane] + OCCOCCO | 131 ± 9 | 122 ± 8.4 | 95.4 ± 6.5 | – | – |
| C#CCCCCCC [1-octyne] + OCCOCCO | 29.9 ± 2 | 29.7 ± 2 | 27 ± 1.9 | – | – |
| OCCOCCO [diethylene glycol] | – | – | – | 1120.05 ± 0.28 kg/m3 | 1.4471 ± 0.0004 |
| CCCCCCCCC [nonane] + OCCOCCO | 264 ± 18 | 230 ± 16 | 193 ± 13 | – | – |
| CCc1ccccc1 [ethylbenzene] + OCCOCCOCCO | 8.63 ± 0.59 | 8.21 ± 0.56 | 7.86 ± 0.54 | – | – |
| CCCCCCCCC [nonane] + OCCOCCOCCO | 137 ± 9.4 | 98.9 ± 6.8 | 83.1 ± 5.7 | – | – |
| C1CCCCCCC1 [cyclooctane] + OCCOCCOCCO | 35.3 ± 2.4 | 27.2 ± 1.9 | 23.9 ± 1.6 | – | – |
| CO [methanol] + OCCOCCOCCO | 0.788 ± 0.051 | 0.787 ± 0.051 | – | – | – |
| CC(C)O [propan-2-ol] + OCCOCCO | 1.79 ± 0.12 | 1.77 ± 0.12 | 1.74 ± 0.12 | – | – |
| C#CCCC [1-pentyne] + OCCOCCOCCO | 5.07 ± 0.63 | 5.11 ± 0.64 | 5.01 ± 0.62 | – | – |
| Cc1ccccc1 [toluene] + OCCOCCOCCO | 5.88 ± 0.4 | 5.73 ± 0.39 | 5.55 ± 0.38 | – | – |
| CCCCC [pentane] + OCCOCCOCCO | 33.7 ± 4.2 | 30.8 ± 3.8 | 23.2 ± 2.9 | – | – |
| CCCCCCCC [octane] + OCCOCCOCCO | 103 ± 7.1 | 74 ± 5.1 | 62.9 ± 4.3 | – | – |
| C=CCCCCC [1-heptene] + OCCOCCO | 72.3 ± 5 | 66.6 ± 4.6 | 60.5 ± 4.1 | – | – |
| CCCCCC [hexane] + OCCOCCO | 95.7 ± 6.6 | 84 ± 5.8 | 82.4 ± 5.6 | – | – |
| C=CCCC [1-pentene] + OCCOCCO | 35.3 ± 4.4 | 32.9 ± 4.1 | 27.6 ± 3.4 | – | – |
| CO [methanol] + OCCOCCO | 0.988 ± 0.062 | 1.01 ± 0.06 | 1.02 ± 0.06 | – | – |
| CCCCCC [hexane] + OCCOCCOCCO | 45.8 ± 3.1 | 40.3 ± 2.8 | 35.1 ± 2.4 | – | – |
| C1CCCCCC1 [cycloheptane] + OCCOCCO | 52.4 ± 3.6 | 47.4 ± 3.2 | 42.1 ± 2.9 | – | – |

| SMILES | activity coefficient ([1]; 333.2 K) | activity coefficient ([1]; 348.2 K) | activity coefficient ([1]; 363.2 K) | mass density [2] | refractive index [3] |
| --- | --- | --- | --- | --- | --- |
| C=CCCC [1-pentene] + OCCOCCOCCO | 17.5 ± 2.2 | 16.1 ± 2 | 14.8 ± 1.8 | – | – |
| C#CCCCCC [1-heptyne] + OCCOCCO | 20.3 ± 1.4 | 20.8 ± 1.4 | 19.3 ± 1.3 | – | – |
| CC(C)O [propan-2-ol] + OCCOCCOCCO | 1.45 ± 0.1 | 1.4 ± 0.09 | 1.38 ± 0.09 | – | – |
| CCc1ccccc1 [ethylbenzene] + OCCOCCO | 16.8 ± 1.1 | 16.1 ± 1.1 | 15.2 ± 1 | – | – |
| C#CCCC [1-pentyne] + OCCOCCO | 9.93 ± 1.2 | 10.5 ± 1.3 | 10.2 ± 1.3 | – | – |
| CCCO [propan-1-ol] + OCCOCCO | 1.8 ± 0.12 | 1.77 ± 0.12 | 1.74 ± 0.12 | – | – |
| C#CCCCC [1-hexyne] + OCCOCCOCCO | 7.01 ± 0.48 | 7.03 ± 0.48 | 6.69 ± 0.46 | – | – |
| C=CCCCCCC [oct-1-ene] + OCCOCCOCCO | 55.9 ± 3.8 | 41.8 ± 2.9 | 36.8 ± 2.5 | – | – |
| OCCOCCOCCO [triethylene glycol] | – | – | – | 1127.37 ± 0.15 kg/m3 | 1.4563 ± 0.0004 |
| C=CCCCC [hex-1-ene] + OCCOCCOCCO | 24.6 ± 1.7 | 22.7 ± 1.6 | 20.4 ± 1.4 | – | – |
| C1CCCCCCC1 [cyclooctane] + OCCOCCO | 70.7 ± 4.8 | 61.3 ± 4.2 | 52.2 ± 3.6 | – | – |
| C#CCCCCCC [1-octyne] + OCCOCCOCCO | 14.4 ± 0.98 | 12.8 ± 0.87 | 12.2 ± 0.83 | – | – |
| C1CCCC1 [cyclopentane] + OCCOCCO | 30.9 ± 2.1 | 27.6 ± 1.9 | 25.9 ± 1.8 | – | – |
| C=CCCCCC [1-heptene] + OCCOCCOCCO | 34.4 ± 2.4 | 30.6 ± 2.1 | 27.5 ± 1.9 | – | – |
| C=CCCCCCC [oct-1-ene] + OCCOCCO | 101 ± 6.9 | 93.5 ± 6.4 | 82.6 ± 5.7 | – | – |
| CCCCC [pentane] + OCCOCCO | 70.2 ± 8.7 | 53.8 ± 6.7 | 54.2 ± 6.7 | – | – |
| CCO [ethanol] + OCCOCCO | 1.47 ± 0.1 | 1.46 ± 0.1 | 1.46 ± 0.1 | – | – |
| C1CCCCCC1 [cycloheptane] + OCCOCCOCCO | 29.6 ± 2 | 22.3 ± 1.5 | 19.8 ± 1.4 | – | – |
| C=CCCCC [hex-1-ene] + OCCOCCO | 50.7 ± 3.5 | 47.3 ± 3.2 | 38.9 ± 2.7 | – | – |
| C#CCCCC [1-hexyne] + OCCOCCO | 14.1 ± 0.96 | 14.6 ± 1 | 13.8 ± 0.94 | – | – |
| C#CCCCCC [1-heptyne] + OCCOCCOCCO | 10.2 ± 0.7 | 9.04 ± 0.62 | 8.99 ± 0.61 | – | – |
| CCCCCCCC [octane] + OCCOCCO | 188 ± 13 | 168 ± 12 | 146 ± 10 | – | – |
| c1ccccc1 [benzene] + OCCOCCOCCO | 3.91 ± 0.27 | 3.86 ± 0.26 | 3.36 ± 0.23 | – | – |
| CCCCCCC [heptane] + OCCOCCOCCO | 62.3 ± 4.3 | 52.3 ± 3.6 | 43.7 ± 3 | – | – |
| C1CCCCC1 [cyclohexane] + OCCOCCOCCO | 21.1 ± 1.4 | 18.6 ± 1.3 | 16.8 ± 1.1 | – | – |
